According to patent US9872873B2, “Process for preparing stable pharmaceutical compositions of compounds susceptible to hydrolysis” (Fresenius Kabi Oncology Limited, priority 2012, dated 2018):

Tests used:
Type in all cases: physicochemical
[1] = Solution stability profile of Azacitidine in water at 25° C.; set-up: unit not given here
Protocol: In one embodiment of the invention, a batch of Azacitidine bulk solution was prepared by dissolving the compound (4 mg/mL) and Mannitol (4 mg/mL) in water at room temperature. […]

[2] = Solution stability profile of Azacitidine in water at −1° C. to 0° C.; set-up: RGU / Specified Imp-1 / Specified Imp-2 / RGU-CHO / Total Impurity (excluding RGU & RGU-CHO): unit not given here; settings: for RGU / RGU-CHO / Specified Imp-1 / Specified Imp-2 / Total Impurity (excluding RGU & RGU-CHO): water, −1° C. to 0° C.
Protocol: It is evident from the Table I that Fabrication of the Azacitidine in water at room temperature led to a significant increase in the level of “RGU-CHO” in the Bulk Solution. Further, in order to control the degradation rate of Azacitidine, another batch was manufactured in water at possible temperature i.e. −1° C. to 0° C. by dissolving Azacitidine (4 mg/mL) and Mannitol (4 mg/mL) in water at −1° C. to 0° C. and the solution stability results are shown below in Table II.

[3] = Solution stability of Azacitidine bulk solution in Water:Acetonitrile 80:20% v/v at −5 ± 2° C.; set-up: RGU / RGU-CHO: unit not given beside the values
Protocol: (§1) In another aspect of the invention the fabrication temperature was controlled at −5±3° C., −5±2° C., −5±1° C. preferably −5±2° C. using Water and Acetonitrile ratio in between 95:5 to 70:30 preferably 80:20 (% v/v) respectively. The hold time data of Azacitidine, Decitabine and Bendamustine obtained in solvent mixture of Water and Acetonitrile at a ratio of 80:20 (% v/v), when fabricated at a temperature range of −5±2° C. is presented in Table VIII, IX, X respectively.

[4] = Stability profile of Bendamustine Hydrochloride pre-lyophilized bulk solution in water (5 mg/mL) at 5 ± 3° C.
[5] = Solution stability of Bendamustine Hydrochloride bulk solution in Water:Acetonitrile 80:20% v/v at −5 ± 2° C.
Protocol: as §1

## Nc1ncn([C@@H]2O[C@H](CO)[C@@H](O)[C@H]2O)c(=O)n1 [Azacitidine]
[1]; 1st hour
  Imp-1: 0.027
  Imp-2: 0.050
  RGU: 0.314
  RGU-CHO: 6.966
  Total Impurity (excluding RGU & RGU-CHO): 0.077
[1]; 2nd hour
  Imp-1: 0.028
  Imp-2: 0.050
  RGU: 0.591
  RGU-CHO: 10.495
  Total Impurity (excluding RGU & RGU-CHO): 0.078
[1]; Initial
  Imp-1: 0.027
  Imp-2: 0.051
  RGU: 0.164
  RGU-CHO: 1.158
  Total Impurity (excluding RGU & RGU-CHO): 0.078
[2]; manufacturing in water at −1° C. to 0° C.
  degradation in RGU-CHO: around 4%
[2]; 1st hour
  RGU: 0.175
  RGU-CHO: 1.767
  Specified Imp-1: 0.025
  Specified Imp-2: 0.051
  Total Impurity (excluding RGU & RGU-CHO): 0.076
[2]; 2nd hour
  RGU: 0.166
  RGU-CHO: 2.283
  Specified Imp-1: 0.025
  Specified Imp-2: 0.051
  Total Impurity (excluding RGU & RGU-CHO): 0.076
[2]; 3rd hour
  RGU: 0.175
  RGU-CHO: 2.921
  Specified Imp-1: 0.026
  Specified Imp-2: 0.051
  Total Impurity (excluding RGU & RGU-CHO): 0.077
[2]; 4th hour
  RGU: 0.191
  RGU-CHO: 4.112
  Specified Imp-1: 0.027
  Specified Imp-2: 0.051
  Total Impurity (excluding RGU & RGU-CHO): 0.078
[2]; Initial
  RGU: 0.158
  RGU-CHO: 0.891
  Specified Imp-1: 0.027
  Specified Imp-2: 0.051
  Total Impurity (excluding RGU & RGU-CHO): 0.078
[3]; 1st hour
  Assay: 101.00
  Imp-1: 0.028
  Imp-2: 0.066
  RGU: 0.145
  RGU-CHO: 0.326
  Total Impurity (excluding RGU & RGU-CHO): 0.094
[3]; 2nd hour
  Assay: 101.30
  Imp-1: 0.028
  Imp-2: 0.066
  RGU: 0.145
  RGU-CHO: 0.45
  Total Impurity (excluding RGU & RGU-CHO): 0.094
[3]; 3rd hour
  Assay: 100.80
  Imp-1: 0.031
  Imp-2: 0.068
  RGU: 0.146
  RGU-CHO: 0.591
  Total Impurity (excluding RGU & RGU-CHO): 0.099
[3]; 4th hour
  Assay: 101.30
  Imp-1: 0.026
  Imp-2: 0.067
  RGU: 0.146
  RGU-CHO: 0.730
  Total Impurity (excluding RGU & RGU-CHO): 0.093
[3]; 5th hour
  Assay: 101.00
  Imp-1: 0.049
  Imp-2: 0.069
  RGU: 0.148
  RGU-CHO: 0.839
  Total Impurity (excluding RGU & RGU-CHO): 0.118
[3]; Initial
  Assay: 101.80
  Imp-1: 0.05
  Imp-2: 0.068
  RGU: 0.143
  RGU-CHO: 0.164
  Total Impurity (excluding RGU & RGU-CHO): 0.118

## Cl.Cn1c(CCCC(=O)O)nc2cc(N(CCCl)CCCl)ccc21 [Bendamustine Hydrochloride]
[4]; 4 hr
  Bendamustine Dimer (RRT 1.23): 0.06%
  Bendamustine Ethyl Ester (BD 5) (RRT 1.38): 0.01%
  H-unk (Highest Unknown Impurity): 0.01%
  Monohydroxy Bendamustine (RRT 0.47): 0.58%
  Total Related Substances: 0.69%
[4]; 8 hr
  Bendamustine Dimer (RRT 1.23): 0.10%
  Bendamustine Ethyl Ester (BD 5) (RRT 1.38): 0.01%
  H-unk (Highest Unknown Impurity): 0.01%
  Monohydroxy Bendamustine (RRT 0.47): 1.59%
  Total Related Substances: 1.77%
[4]; 24 hr
  Bendamustine Dimer (RRT 1.23): 0.19%
  Bendamustine Ethyl Ester (BD 5) (RRT 1.38): 0.01%
  H-unk (Highest Unknown Impurity): 0.01%
  Monohydroxy Bendamustine (RRT 0.47): 4.13%
  Total Related Substances: 4.37%
[4]; Initial
  Bendamustine Dimer (RRT 1.23): 0.04%
  Bendamustine Ethyl Ester (BD 5) (RRT 1.38): 0.00%
  H-unk (Highest Unknown Impurity): 0.01%
  Monohydroxy Bendamustine (RRT 0.47): 0.12%
  Total Related Substances: 0.20%
[5]; 1 hr
  Bendamustine Dimer (RRT 1.23): 0.05%
  Bendamustine Ethyl Ester (BD 5) (RRT 1.38): 0.003%
  H-unk (Highest Unknown Impurity): 0.03%
  Monohydroxy Bendamustine (RRT 0.47): 0.02%
  Total Related Substances: 0.17%
[5]; 2 hr
  Bendamustine Dimer (RRT 1.23): 0.05%
  Bendamustine Ethyl Ester (BD 5) (RRT 1.38): 0.003%
  H-unk (Highest Unknown Impurity): 0.03%
  Monohydroxy Bendamustine (RRT 0.47): 0.03%
  Total Related Substances: 0.18%
[5]; 3 hr
  Bendamustine Dimer (RRT 1.23): 0.05%
  Bendamustine Ethyl Ester (BD 5) (RRT 1.38): 0.003%
  H-unk (Highest Unknown Impurity): 0.03%
  Monohydroxy Bendamustine (RRT 0.47): 0.04%
  Total Related Substances: 0.19%
[5]; 6 hr
  Bendamustine Dimer (RRT 1.23): 0.06%
  Bendamustine Ethyl Ester (BD 5) (RRT 1.38): 0.003%
  H-unk (Highest Unknown Impurity): 0.03%
  Monohydroxy Bendamustine (RRT 0.47): 0.07%
  Total Related Substances: 0.23%
[5]; 8 hr
  Bendamustine Dimer (RRT 1.23): 0.06%
  Bendamustine Ethyl Ester (BD 5) (RRT 1.38): 0.003%
  H-unk (Highest Unknown Impurity): 0.03%
  Monohydroxy Bendamustine (RRT 0.47): 0.09%
  Total Related Substances: 0.25%
[5]; Initial
  Bendamustine Dimer (RRT 1.23): 0.05%
  Bendamustine Ethyl Ester (BD 5) (RRT 1.38): 0.003%
  H-unk (Highest Unknown Impurity): 0.03%
  Monohydroxy Bendamustine (RRT 0.47): 0.01%
  Total Related Substances: 0.15%
